{
  "source": "patent US8895585B2",
  "about": "“Nicotinamide derivative or salt thereof” (FUJIFILM Corporation, priority 2010, dated 2014)",
  "data": [
    {"molecular_target": "T1, glutathione S-transferase (GST)-fused full-length human Syk protein (Homo sapiens, UniProt P43405)", "T1 construct": "(GST)-fused full-length human Syk protein; GST (glutathione S-transferase); purchased Carna Biosciences", "assay": "Syk enzyme assay", "type": "biochemical", "conditions": "Syk enzyme assay, Test Example 1; read-out: IC50 of Syk-inhibitory activity", "summary_of_the_method": "(§1)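 GST-tagged full-length human Syk (baculovirus) preincubated with compound 15 min at room temperature (pH 7.0, 10 mM MgCl2), then reacted 40 min with 0.4 μM biotinylated peptide substrate and 27 μM ATP (final). Phosphorylation read by HTRF (615/665 nm) after EDTA stop; IC50 reported.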", "units": {"IC50": "nM"}, "values": [
      {"compound": "Cn1cc(Nc2nc(N[C@@H]3CCCC[C@@H]3N)c(F)cc2C(N)=O)cc(-n2ccnn2)c1=O", "note": "(relative stereo) [Example 006-428, 6-((cis-2-aminocyclohexyl)amino)-5-fluoro-2-((1-methyl-6-oxo-5-(1H-1,2,3-triazol-1-yl)-1,6-dihydropyridin-3-yl)amino)nicotinamide]", "IC50": "50 to 100"},
      {"compound": "CN(C)C(=O)c1cc(Nc2nc(NC3CCCC[C@@H]3N)c(F)cc2C(N)=O)ccn1", "note": "(some centres unmarked) [Example 029-014]", "IC50": "50 to 100"},
      {"compound": "COC(=O)c1cc(Nc2nc(N[C@@H]3CCCC[C@@H]3N)c(F)cc2C(N)=O)cnc1N", "note": "(relative stereo) [Example 004-142, methyl 2-amino-5-((6-(cis-2-aminocyclohexylamino)-3-carbamoyl-5-fluoropyridin-2-yl)amino)nicotinate]", "IC50": "10 to 50"},
      {"compound": "COCCn1c(=O)ccc2cc(Nc3nc(NC4CCCCC4N)c(F)cc3C(N)=O)cnc21", "note": "(centres unmarked) [Example 002-116]", "IC50": "50 to 100"},
      {"compound": "COc1cc(Nc2nc(NCCc3cnc[nH]3)c(F)cc2C(N)=O)cc(OC)c1", "note": "[Example 016-011]", "IC50": "100 to 1000"},
      {"compound": "NC(=O)c1cc(F)c(N[C@@H]2CCCC[C@@H]2N)nc1Nc1ccc2nc(OCCCN3CCCC3=O)ccc2c1", "note": "(relative stereo) [Example 004-200, 6-(cis-2-aminocyclohexylamino)-5-fluoro-2-((2-(3-(2-oxopyrrolidin-1-yl)propoxy)quinolin-6-yl)amino)nicotinamide]", "IC50": "< 10"},
      {"compound": "CNC(=O)c1cc(Nc2nc(NC3CCCC[C@@H]3N)c(F)cc2C(N)=O)ccn1", "note": "(some centres unmarked) [Example 029-013]", "IC50": "10 to 50"},
      {"compound": "NC(=O)c1cc(F)c(N[C@@H]2CCCC[C@@H]2N)nc1Nc1cc(C(F)(F)F)cc2[nH]ccc12", "note": "(relative stereo) [Example 004-085, 6-(cis-2-aminocyclohexylamino)-5-fluoro-2-((6-(trifluoromethyl)-1H-indol-4-yl)amino)-nicotinamide]", "IC50": "< 10"},
      {"compound": "NCCNc1nc(Nc2cncc(-c3ccccc3)c2)c(C(N)=O)cc1F", "note": "[Example 006-089, 6-((2-aminoethyl)amino)-5-fluoro-2-((5-phenylpyridin-3-yl)amino)nicotinamide]", "IC50": "10 to 50"},
      {"compound": "NC(=O)c1cc(F)c(NC2CCCCC2N)nc1Nc1ccc(N2CCCC2)nc1", "note": "(centres unmarked) [Example 002-078]", "IC50": "10 to 50"},
      {"compound": "NC(=O)c1cc(F)c(NC2CCCCC2N)nc1Nc1cnc2ccccc2c1", "note": "(centres unmarked) [Example 008-004]", "IC50": "< 10"},
      {"compound": "COc1ccc(-c2cncc(Nc3nc(N[C@@H]4CCCC[C@@H]4N)c(F)cc3C(N)=O)c2)cn1", "note": "(relative stereo) [Example 004-231, 6-((cis-2-aminocyclohexyl)amino)-5-fluoro-2-((6′-methoxy-[3,3′-bipyridin]-5-yl)amino)nicotinamide]", "IC50": "10 to 50"},
      {"compound": "NC(=O)c1cc(F)c(N[C@@H]2CCCC[C@@H]2N)nc1Nc1cncc(-c2cccc(F)c2)c1", "note": "(relative stereo) [Example 004-144, 6-(cis-2-aminocyclohexylamino)-5-fluoro-2-((5-(3-fluorophenyl)pyridin-3-yl)amino)-nicotinamide]", "IC50": "< 10"},
      {"compound": "CC(C)C[C@H](CN)Nc1nc(Nc2ccc(N3CCOCC3)nc2)c(C(N)=O)cc1F", "note": "[Example 006-191, (R)-6-((1-amino-4-methylpentan-2-yl)amino)-5-fluoro-2-((6-morpholinopyridin-3-yl)amino)nicotinamide]", "IC50": "10 to 50"},
      {"compound": "Cc1ccccc1-c1cncc(Nc2nc(N[C@@H]3CCCC[C@@H]3N)c(F)cc2C(N)=O)c1", "note": "(relative stereo) [Example 004-101, 6-(cis-2-aminocyclohexylamino)-5-fluoro-2-((5-(2-methylphenyl)pyridin-3-yl)amino)-nicotinamide]", "IC50": "10 to 50"},
      {"compound": "CCOCCOCCOc1nccc2cc(Nc3nc(N[C@@H]4CCCC[C@@H]4N)c(F)cc3C(N)=O)ccc12", "note": "(relative stereo) [Example 004-169, 6-(cis-2-aminocyclohexylamino)-2-((1-(2-(2-ethoxyethoxy)ethoxy)isoquinolin-6-yl)amino)-5-fluoronicotinamide]", "IC50": "< 10"},
      {"compound": "COCCOc1ncc(Nc2nc(N[C@@H]3CCCC[C@@H]3N)c(F)cc2C(N)=O)c2ccccc12", "note": "(relative stereo) [Example 004-150, 6-(cis-2-aminocyclohexylamino)-5-fluoro-2-((1-(2-methoxyethoxy)isoquinolin-4-yl)amino)-nicotinamide]", "IC50": "100 to 1000"},
      {"compound": "Cn1cccc1-c1cncc(Nc2nc(NCCN)c(F)cc2C(N)=O)c1", "note": "[Example 006-090, 6-((2-aminoethyl)amino)-5-fluoro-2-((5-(1-methyl-1H-pyrrol-2-yl)pyridin-3-yl)amino)nicotinamide]", "IC50": "100 to 1000"},
      {"compound": "Cn1cc(Nc2nc(NC3CCCCC3N)c(F)cc2C(N)=O)ccc1=O", "note": "(centres unmarked) [Example 002-202]", "IC50": "100 to 1000"},
      {"compound": "NC(=O)c1cc(F)c(NC2CCCCC2N)nc1Nc1cncc(C2CCCCC2)c1", "note": "(centres unmarked) [Example 002-096]", "IC50": "10 to 50"},
      {"compound": "CCOCCOc1ccc2cc(Nc3nc(NC4CCCCC4N)c(F)cc3C(N)=O)ccc2n1", "note": "(centres unmarked) [Example 002-107]", "IC50": "< 10"},
      {"compound": "COc1cccc(-c2cc(Nc3nc(NC4CCCCC4N)c(F)cc3C(N)=O)ccn2)c1", "note": "(centres unmarked) [Example 002-183]", "IC50": "< 10"},
      {"compound": "NC(=O)c1cc(F)c(NC2CCCCC2N)nc1Nc1cncc(NC(=O)c2cccc(F)c2)c1", "note": "(centres unmarked) [Example 027-027]", "IC50": "10 to 50"},
      {"compound": "COc1cc(Nc2nc(NC3CCCC3C(N)=O)c(F)cc2C(N)=O)cc(OC)c1", "note": "(centres unmarked) [Example 033-007]", "IC50": "100 to 1000"},
      {"compound": "NC(=O)c1cc(F)c(NC2CCCCC2N)nc1Nc1cncc(NC(=O)c2ccsc2)c1", "note": "(centres unmarked) [Example 027-032]", "IC50": "< 10"},
      {"compound": "COc1ccc2ccc(Nc3nc(NC4CCCCC4N)c(F)cc3C(N)=O)cc2n1", "note": "(centres unmarked) [Example 002-088]", "IC50": "< 10"},
      {"compound": "CC(C)COc1cc(Nc2nc(NC3CCCCC3N)c(F)cc2C(N)=O)ccn1", "note": "(centres unmarked) [Example 002-084]", "IC50": "< 10"},
      {"compound": "COc1cc(Nc2nc(Nc3ccncc3)c(F)cc2C(N)=O)cc(OC)c1", "note": "[Example 016-020]", "IC50": "100 to 1000"},
      {"compound": "CCOCCOCCOc1ccc2ccc(Nc3nc(NC4CCCCC4N)c(F)cc3C(N)=O)cc2n1", "note": "(centres unmarked) [Example 002-093]", "IC50": "< 10"},
      {"compound": "C[C@H](N)[C@@H](CC1CC1)Nc1nc(Nc2cccc3c2c(F)nn3CCF)c(C(N)=O)cc1F", "note": "[Example 006-491, 6-(((2R,3S)-3-amino-1-cyclopropylbutan-2-yl)amino)-5-fluoro-2-((3-fluoro-1-(2-fluoroethyl)-1H-indazol-4-yl)amino)nicotinamide]", "IC50": "10 to 50"},
      {"compound": "COc1ncc(Nc2nc(N[C@@H]3CCCC[C@@H]3N)c(F)cc2C(N)=O)c2ccccc12", "note": "(relative stereo) [Example 004-153, 6-(cis-2-aminocyclohexylamino)-5-fluoro-2-((1-methoxyisoquinolin-4-yl)amino)-nicotinamide]", "IC50": "100 to 1000"},
      {"compound": "C[C@H](N)[C@H](C)Nc1nc(Nc2ccc3ncccc3c2)c(C(N)=O)cc1F", "note": "[Example 006-181, 6-(((2S,3S)-3-aminobutan-2-yl)amino)-5-fluoro-2-((quinolin-6-yl)amino)nicotinamide]", "IC50": "100 to 1000"},
      {"compound": "COC(C)CCOc1cc(Nc2nc(NC3CCCCC3N)c(F)cc2C(N)=O)ccn1", "note": "(centres unmarked) [Example 002-085]", "IC50": "10 to 50"},
      {"compound": "Cc1cc(Nc2nc(N[C@@H]3CCCC[C@@H]3N)c(F)cc2C(N)=O)cs1", "note": "(relative stereo) [Example 004-057]", "IC50": "< 10"},
      {"compound": "CC[C@H](N)[C@@H](CC)Nc1nc(Nc2ccc3cnn(C)c3c2)c(C(N)=O)cc1F", "note": "[Example 006-366, 6-(((3R,4S)-4-aminohexan-3-yl)amino)-5-fluoro-2-((1-methyl-1H-indazol-6-yl)amino)nicotinamide]", "IC50": "50 to 100"},
      {"compound": "Cn1ccc2cc(-c3cncc(Nc4nc(N[C@@H]5CCCC[C@@H]5N)c(F)cc4C(N)=O)c3)ccc21", "note": "(relative stereo) [Example 006-091, 6-((cis-2-aminocyclohexyl)amino)-5-fluoro-2-((5-(1-methyl-1H-indol-5-yl)pyridin-3-yl)amino)nicotinamide]", "IC50": "10 to 50"},
      {"compound": "COCCn1ccc2cc(Nc3nc(N[C@@H]4CCCC[C@@H]4N)c(F)cc3C(N)=O)cc(F)c21", "note": "(relative stereo) [Example 004-081, 6-(cis-2-aminocyclohexylamino)-5-fluoro-2-((7-fluoro-1-(2-methoxyethyl)-1H-indol-5-yl)-amino)nicotinamide]", "IC50": "< 10"},
      {"compound": "C[C@H](N)[C@@H](CC1CC1)Nc1nc(Nc2ccc3cnn(CCF)c3c2)c(C(N)=O)cc1F", "note": "[Example 006-437, 6-(((2R,3S)-3-amino-1-cyclopropylbutan-2-yl)amino)-5-fluoro-2-((1-(2-fluoroethyl)-1H-indazol-6-yl)amino)nicotinamide]", "IC50": "10 to 50"},
      {"compound": "CC(=O)Nc1ccc(-c2cncc(Nc3nc(N[C@@H]4CCCC[C@@H]4N)c(F)cc3C(N)=O)c2)cc1", "note": "[Example 004-224]", "IC50": "< 10"},
      {"compound": "NC(=O)c1cc(F)c(N[C@@H]2CCCC[C@@H]2N)nc1Nc1cncc(C(F)(F)F)c1", "note": "(relative stereo) [Example 004-098, 6-(cis-2-aminocyclohexylamino)-5-fluoro-2-((5-(trifluoromethyl)pyridin-3-yl)amino)-nicotinamide]", "IC50": "10 to 50"},
      {"compound": "NC(=O)c1cc(F)c(NC2CCCCC2N)nc1Nc1ccnc(-c2cn[nH]c2)c1", "note": "(centres unmarked) [Example 002-070]", "IC50": "< 10"}
    ]},
    {"molecular_target": "T1, glutathione S-transferase (GST)-fused full-length human Syk protein", "assay": "Syk enzyme assay", "type": "biochemical", "conditions": "read-out: Syk-inhibitory activity (IC50)", "summary_of_the_method": "as §1", "units": {"IC50": "nM"}, "values": [
      {"compound": "NC(=O)c1cncc(Nc2nc(N[C@@H]3CCCC[C@@H]3N)c(F)cc2C(N)=O)c1", "note": "(relative stereo) [Example 28, 2-(5-aminocarbonylpyridin-3-ylamino)-6-(cis-2-aminocyclohexylamino)-5-fluoronicotinamide]", "IC50": "≤ 1000"},
      {"compound": "NC(=O)c1cc(F)c(N[C@@H]2CCCC[C@@H]2N)nc1Nc1ccc(-c2ccccc2)nc1", "note": "(relative stereo) [Example 2-9, 6-(cis-2-aminocyclohexylamino)-5-fluoro-2-((6-phenylpyridin-3-yl)amino)nicotinamide]", "IC50": "≤ 1000"},
      {"compound": "Cc1cccc(Nc2nc(NCCN)c(F)cc2C(N)=O)c1", "note": "[Example 6-2, 6-((2-aminoethyl)amino)-5-fluoro-2-(3-methylphenylamino)nico-tinamide]", "IC50": "≤ 1000"}
    ]}
  ]
}
